Laboratory results: the Kinase Knowledgebase extract (Sharma et al. 2016)

Assays:
EGFR (human) [1] = target: EGFR (human) (UniProt P00533); conditions: a431
[2] = target: EGFR (human), P00533 [Antiproliferation of H195 Cells Having Overexpressed EGFR T790 Mutant Kinase]
[3] = target: EGFR (human), P00533 [Assessment of EGFR T790 Mutant Kinase Activity]
EGFR (human) [4] = target: EGFR (human) (UniProt P00533)

Chain of EGFR (human), P00533 [Antiproliferation of H195 Cells Having Overexpressed EGFR T790 Mutant Kinase] (P00533 whole entry, looked up, change not shown): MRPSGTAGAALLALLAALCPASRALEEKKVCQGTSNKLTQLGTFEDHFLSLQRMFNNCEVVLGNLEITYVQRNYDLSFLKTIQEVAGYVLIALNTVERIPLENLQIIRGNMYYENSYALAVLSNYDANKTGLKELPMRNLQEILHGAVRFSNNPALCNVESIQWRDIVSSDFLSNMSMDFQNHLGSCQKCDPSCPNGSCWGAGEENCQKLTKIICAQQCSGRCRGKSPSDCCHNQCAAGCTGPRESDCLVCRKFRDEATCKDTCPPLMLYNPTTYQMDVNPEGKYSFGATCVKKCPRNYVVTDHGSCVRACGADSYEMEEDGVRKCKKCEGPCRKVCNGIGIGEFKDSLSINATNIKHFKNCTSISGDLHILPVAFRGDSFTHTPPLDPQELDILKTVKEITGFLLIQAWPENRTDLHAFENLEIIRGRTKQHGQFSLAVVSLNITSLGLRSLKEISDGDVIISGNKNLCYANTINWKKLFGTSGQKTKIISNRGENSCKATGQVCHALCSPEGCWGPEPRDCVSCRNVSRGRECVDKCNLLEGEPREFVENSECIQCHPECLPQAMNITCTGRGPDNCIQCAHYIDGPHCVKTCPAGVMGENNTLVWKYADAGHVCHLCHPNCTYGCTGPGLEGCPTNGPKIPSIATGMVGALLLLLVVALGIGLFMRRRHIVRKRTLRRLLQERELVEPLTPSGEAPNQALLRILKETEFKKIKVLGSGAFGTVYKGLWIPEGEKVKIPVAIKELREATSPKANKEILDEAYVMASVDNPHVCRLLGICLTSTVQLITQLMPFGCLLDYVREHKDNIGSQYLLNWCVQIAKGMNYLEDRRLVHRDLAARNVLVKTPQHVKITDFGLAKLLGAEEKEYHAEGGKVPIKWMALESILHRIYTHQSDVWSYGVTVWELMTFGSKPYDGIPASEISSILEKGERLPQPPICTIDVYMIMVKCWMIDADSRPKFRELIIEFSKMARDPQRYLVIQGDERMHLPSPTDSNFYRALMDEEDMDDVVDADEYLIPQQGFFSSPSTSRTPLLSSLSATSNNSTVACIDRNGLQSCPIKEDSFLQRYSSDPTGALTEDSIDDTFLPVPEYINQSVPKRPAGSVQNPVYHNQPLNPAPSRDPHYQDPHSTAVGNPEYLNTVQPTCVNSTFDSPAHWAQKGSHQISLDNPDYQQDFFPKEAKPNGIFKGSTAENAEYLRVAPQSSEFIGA
Chain of EGFR (human) (P00533 whole entry, looked up): as the sequence (P00533 whole entry, looked up, change not shown) above
Chain of EGFR (human), P00533 [Assessment of EGFR T790 Mutant Kinase Activity] (P00533 whole entry, looked up, change not shown): as above

C=CC(=O)N1CC[C@H](Oc2cc3c(Nc4ccc(F)c(Cl)c4F)ncnc3cc2OC)C[C@H]1C(=O)NCCS(C)(=O)=O
IC50 (EGFR (human) [1]): 2.2 nM
IC50 [2]: 50.4 nM

C=C(NC(C)=O)C(=O)N1CC(Oc2cc3c(Nc4ccc(F)c(Cl)c4F)ncnc3cc2OC)C1
IC50 (EGFR (human) [1]): 3.1 nM
IC50 [2]: 50 nM

C=CC(=O)N1CC[C@H](Oc2cc3c(Nc4ccc(F)c(Cl)c4F)ncnc3cc2OC)C[C@H]1C(=O)NCCO
IC50 (EGFR (human) [1]): 5.4 nM
IC50 [2]: 39 nM

C=CC(=O)N1CC[C@@H](Oc2cc3c(Nc4ccc(F)c(Cl)c4F)ncnc3cc2OC)C[C@@H]1C(=O)OC
IC50 (EGFR (human) [1]): 0.7 nM
IC50 [2]: 5.4 nM

C=CC(=O)N1CCC(Oc2cc3c(Nc4ccc(F)c(Cl)c4F)ncnc3cc2OC)CC1
IC50 [3]: 24 nM

C=CC(=O)N1CC[C@@H](Oc2cc3c(Nc4ccc(Cl)c(Cl)c4F)ncnc3cc2OC)C[C@@H]1C(N)=O
IC50 (EGFR (human) [1]): 0.8 nM
IC50 [2]: 1.1 nM

C=CC(=O)N1CC[C@H](Oc2ccc3ncnc(Nc4ccc(F)c(Cl)c4F)c3c2)C1
IC50 (EGFR (human) [1]): 5 nM
IC50 [2]: 413 nM

C=CC(=O)N1CCC(Oc2cc3c(Nc4cccc(C)c4)ncnc3cc2OC)CC1
IC50 (EGFR (human) [1]): 1 nM
IC50 [2]: 236 nM

C=CC(=O)N1CCC(Oc2cc3c(Nc4ccc(F)c(Cl)c4)ncnc3cc2OC)CC1
IC50 (EGFR (human) [1]): 17 nM
IC50 [2]: 16 nM

C=CC(=O)N1CC[C@H](Oc2cc3c(Nc4ccc(F)c(Cl)c4F)ncnc3cc2OC)C[C@H]1C(N)=O
IC50 (EGFR (human) [1]): 3 nM
IC50 [2]: 5.2 nM

C=CC(=O)N1CC(Oc2cc3c(Nc4cccc(Cl)c4)ncnc3cc2OC)C1
IC50 (EGFR (human) [1]): 1.6 nM
IC50 [2]: 17.7 nM

C=CC(=O)N1CC[C@H](Oc2cc3c(Nc4ccc(F)c(Cl)c4F)ncnc3cc2OC)C[C@H]1C(=O)NCCSC
IC50 (EGFR (human) [1]): 2.4 nM
IC50 [2]: 5 nM

C=CC(=O)N1CC(Oc2cc3c(Nc4ccc(F)c(Cl)c4F)ncnc3cc2OC)C1
IC50 (EGFR (human) [1]): 0.3 nM
IC50 [2]: 1.5 nM

C=C(CN(C)C)C(=O)N1CC(Oc2cc3c(Nc4ccc(F)c(Cl)c4F)ncnc3cc2OC)C1
IC50 (EGFR (human) [1]): 41 nM
IC50 [2]: 11 nM

C=CC(=O)N1CCC(Oc2cc3c(Nc4cccc(Br)c4)ncnc3cc2OC)CC1
IC50 (EGFR (human) [1]): 1 nM
IC50 [2]: 96 nM

C=CC(=O)N1CC[C@H](Oc2cc3c(Nc4ccc(F)c(Cl)c4F)ncnc3cc2OC)C[C@H]1C(=O)NCCOC
IC50 (EGFR (human) [1]): 3.4 nM
IC50 [2]: 11 nM

C=CC(=O)N1CCC(Oc2cc3c(Nc4ccc(Br)c(C)c4)ncnc3cc2OC)CC1
IC50 (EGFR (human) [1]): 6 nM
IC50 [2]: 48 nM

C=CC(=O)N1CCC(Oc2cc3c(Nc4ccc(F)c(Cl)c4F)ncnc3cc2OCCOC)CC1
IC50 (EGFR (human) [1]): 4 nM
IC50 [2]: 47 nM

C=CC(=O)N1CC(Oc2cc3c(N[C@H](C)c4ccccc4)ncnc3cc2OC)C1
IC50 (EGFR (human) [1]): 7 nM
IC50 [2]: 156 nM

C=CC(=O)N1CC[C@H](Oc2cc3c(Nc4ccc(F)c(Cl)c4F)ncnc3cc2OC)C[C@H]1C(=O)NCCN(C)C
IC50 (EGFR (human) [1]): 5.7 nM
IC50 [2]: 30 nM

C=CC(=O)N1CC(Oc2cc3c(Nc4cccc(Cl)c4F)ncnc3cc2OC)C1
IC50 (EGFR (human) [1]): 1.6 nM
IC50 [2]: 9 nM

C=CC(=O)N1CC[C@@H](Oc2cc3c(Nc4ccc(F)c(Cl)c4F)ncnc3cc2OC)C[C@@H]1C(N)=O
IC50 (EGFR (human) [1]): 0.8 nM
IC50 [2]: 5.2 nM

C=CC(=O)N1CCC(Oc2cc3c(Nc4cccc(Cl)c4F)ncnc3cc2OC)CC1
IC50 (EGFR (human) [1]): 2 nM
IC50 [2]: 22 nM

C=CC(=O)N1CC[C@H](Oc2cc3c(Nc4ccc(Br)c(Cl)c4F)ncnc3cc2OC)C1
IC50 (EGFR (human) [1]): 5 nM
IC50 [2]: 55 nM

C=CC(=O)N1CC[C@H](Oc2cc3c(Nc4ccc(F)c(Cl)c4F)ncnc3cc2OC)C1
IC50 (EGFR (human) [1]): 4 nM
IC50 [2]: 80 nM
IC50 (EGFR (human) [4]): 3 nM

C=C(CN1CCOCC1)C(=O)N1CC(Oc2cc3c(Nc4ccc(F)c(Cl)c4F)ncnc3cc2OC)C1
IC50 (EGFR (human) [1]): 1.5 nM
IC50 [2]: 8 nM

C=CC(=O)N1CC[C@H](Oc2cc3c(N[C@H](C)c4ccccc4)ncnc3cc2OC)C1
IC50 (EGFR (human) [1]): 8 nM
IC50 [2]: 167 nM

C=CC(=O)N1CC[C@@H](Oc2cc3c(Nc4ccc(F)c(Cl)c4F)ncnc3cc2OC)C[C@@H]1C(=O)NC
IC50 (EGFR (human) [1]): 2.9 nM
IC50 [2]: 2.6 nM

C=CC(=O)N1CC[C@@H](Oc2cc3c(Nc4ccc(F)c(Cl)c4F)ncnc3cc2OC)C[C@@H]1C(=O)NCCS(C)(=O)=O
IC50 (EGFR (human) [1]): 2.4 nM

C=CC(=O)N1CCC(Oc2cc3c(Nc4ccc(Cl)cc4O)ncnc3cc2OC)CC1
IC50 (EGFR (human) [1]): 32 nM

COc1cc2ncnc(Nc3ccc(F)c(Cl)c3F)c2cc1OC1CN(C(=O)/C=C\Cl)C1
IC50 (EGFR (human) [1]): 2.4 nM
IC50 [2]: 19 nM

COc1cc2ncnc(Nc3cccc(Cl)c3F)c2cc1OC1CCN(C(=O)CO)CC1
IC50 (EGFR (human) [1]): 39 nM
IC50 (EGFR (human) [4]): 204 nM

C=CC(=O)N1CCC(Oc2cc3c(Nc4cccc(C=C)c4)ncnc3cc2OC)CC1
IC50 (EGFR (human) [1]): 1.9 nM
IC50 [2]: 27 nM

COc1cc2ncnc(Nc3ccc(Cl)c(Cl)c3F)c2cc1OC1CCN(C(=O)/C=C/CN(C)C)CC1
IC50 (EGFR (human) [1]): 165 nM

C=CC(=O)N1CC[C@H](Oc2cc3c(Nc4ccc(F)c(Cl)c4F)ncnc3cc2OC)C[C@H]1C(=O)NCCN1CCOCC1
IC50 (EGFR (human) [1]): 8.3 nM

C=CC(=O)N1CC[C@@H](Oc2cc3c(Nc4ccc(F)c(Cl)c4F)ncnc3cc2OC)C[C@@H]1C(=O)NO
IC50 (EGFR (human) [1]): 1.7 nM
